# Several values for one entry are separate records, joined by “and”; a condition that tells them apart may be missing. Equal values may be shown once. Read-outs that look alike come from different tables or passages of the source.
# How the values were obtained:
# [1] = Plasma protein binding (PPB) by equilibrium dialysis; assay type: in vitro ADME, Sprague Dawley rat; details: Sprague Dawley, rat, plasma (Li-Heparin), equilibrium dialysis of PBS against dye-plasma stock, 37°C, UV absorption
# Description: (§1) The interaction between fluorescent dyes and plasma proteins is particularly important as it affects the capability of the dyes as GRF agents in the following aspects: bio-distribution and clearance pathways as well as the rate of excretion in vivo.[15] […] ABCACY and AACACY display 54.5% and 60% PPB, respectively. […] Additionally, PPB is not only dependent on the dye hydrophilicity, but is also related to the molecular charge number and distribution. Since albumin is alkalotic, acidic agents will preferentially bind to albumin, then to lipoprotein after albumin becomes saturated. Basic agents will bind to the acidic alpha-1 acid glycoprotein.[17] Thus, anionic and cationic compounds are more inclined to bind to proteins than zwitterionic compounds. Therefore, we will mainly focus on zwitterionic compounds in the following parts.
# 5. […]
# (§2) PPB measurements were performed by equilibrium dialysis of PBS against dye-protein stock solution (or control stock solution) using a two-chamber dialysis set-up. After 24 hours the absorption of each of the dyes or agents in PBS and plasma were determined in three independent measurements by both absorption spectroscopy and fluorescence spectroscopy in a microplate reader. The concentrations of each of the dyes or agents were calculated on the basis of the corresponding molar absorption coefficients. […] PPB in percent [%] was determined by averaging three independent measurements and following the equation of Lambert Beer law: […]
# (§3) ABZWCY-HPβCD (1 mg/mL in PBS), SD rat plasma (50% in PBS), ABZWCY-HPβCD (1 mg/mL) mixed with SD rat plasma (50% in PBS) were prepared and filtered through a sterile 0.22 μm filter before analysis. […] The measurements were carried out in quadratic cells and analyzed the scattered light at an angle of 90° at a controlled temperature (25 °C). […] The apparent hydrodynamic radius was calculated according to the Stokes-Einstein […]
# [2] = test system: organic anion transporter (OAT) proteins; test: Transcutaneous measurement of elimination kinetics in healthy rats; assay type: in vivo, Sprague Dawley rats; details: Sprague Dawley, rat, skin (transcutaneous fluorescence signal), ip; healthy rats, 50 mg/kg probenecid i.p. 30 min prior to injection, transcutaneous; read-out: T 1/2 with probenecid (clearance half-life)
# Description: (§4) The principles and methods of the transcutaneous technique are described in Fig. S10. ^† Firstly, as a control, IRDye800CW was chosen to be injected intravenously into rats and its elimination curves were measured transcutaneously. […] A long retention time of IRDye800CW in vivo was attributed to its higher PPB (41%) and negative charge feature, leading to skin accumulation and slow renal excretion. […] To assess whether the anionic agent ABANCY-HPβCD is reabsorbed or secreted by organic anion transporter (OAT) proteins in the kidney tubules, probenecid, an inhibitor of OAT proteins,[18] was administered (30 min prior to injection of ABANCY-HPβCD) to block tubular reabsorption and the secretion pathway, then, elimination curves were measured for the same rats. […] We also measured the cationic HPβCD based agent in the same manner and the results are similar to those of anionic HPβCD based agents. Next, the free dye ABZWCY was injected intravenously and its elimination curves were also recorded transcutaneously. […] This is in agreement with their similar PPB values (∼20%). To determine whether ABZWCY has tubular reabsorption or secretion in addition to filtration, probenecid was administered to block tubular reabsorption and the secretion pathway. […]
# (§5) 8. Principle and methods for transcutaneous measurements of kidney function The transcutaneous assessment of renal function is based on the measurement of the fluorescence signal of a marker through the skin. A miniaturized transcutaneous device is comprised of two light emitting diodes (LEDs) and one photodiode (Figure S10a and 10b). The LEDs can blink every few seconds to excite a fluorescent marker using excitation wavelength of 700 nm. The fluorescent signal will be recorded by detecting the emission intensity of a fluorescent marker at 790 nm. Data are stored in the device and can be read out after measurement.[6] The clearance half-life of fluorescent agents was calculated by software, which was developed by the Institute of Medical Technology of the University of Heidelberg.[7] For this a 3-exponential function was fitted to the measured elimination curve, the peak of the curve was supposed to be 100%. Also a 1-exponential function was applied from 50% to 15% of the peak […]
# (§6) Figure. S10. (a) Transcutaneous device and battery used for the transcutaneous measurement, the photodiodes and LEDs in the device. (b) A schematic overview of the excitation and emission light between a transcutaneous device and fluorescent agents in capillary vessel after injection. (c-g) The fixation procedures of a transcutaneous device on the skin and measurements in a […]
# (§7) Healthy Sprague Dawley rats (Body weight: 250-300 g, 8-10 weeks) were anesthetized for a short period with Isoflurane (Forene®, AbbVie, Illinois, USA; Dosage: 5 %; Flow(O2): 5 L/min) in order to fix the transcutaneous device on the back of rats. The back of the animals was depilated with an electric shaver (Figure 10c-g). After a baseline measurement for around 5 min, a fluorescent agent in saline (DeltaSelect, GmbH, Rimbach, Germany) was injected as a bolus by tail vein injection. […] The devices were removed and the data were read out after 120 min of transcutaneous measurement. The clearance half-life of fluorescent agents was calculated by software. […]
# [3] = as above; assay type: in vivo, Sprague Dawley rats; details: for Transcutaneous elimination (clearance) curve, in words: i.v. injection
# Description: as §4, §5, §6, §7
# [4] = test system: Sprague Dawley rat plasma; test: Plasma protein binding (PPB) by equilibrium dialysis; assay type: in vitro ADME; details: equilibrium dialysis of PBS against dye-plasma stock, 37°C, 24 hours, UV absorption
# Description: as §1
# 5. […]
# as §2, §3
# [5] = Urinary recovery of injected dose (metabolic cages); assay type: in vivo, Sprague Dawley rats
# Description: With this in mind, we investigated the recoveries of injected doses using in vivo experiments with metabolic cages. High urinary recoveries were determined for the free dye ABZWCY and its mixture with HPβCD (99.4 ± 4.8% and 96.5 ± 5.8%, respectively, Fig. 4 and Tables 2 and S6 ^†). Similar tendencies of urinary recoveries of ABZWCY-HPβCD and AAZWCY-HPβCD with values of 97 ± 3.9% and 103.3 ± 4.2%, respectively, were also observed (Fig. 4, and Tables 2 and S7 ^†). Indeed, urinary recoveries of the given dose were almost completed at 9 h post-injection for ABZWCY-HPβCD and AAZWCY-HPβCD, which is faster than the free dye ABZWCY and in agreement with their shorter clearance half-life.
# All experiments were conducted in accordance with the German Animal Protection Law and approved by the local authority (Regierungspräsidium Nordbaden, Karlsruhe Germany in agreement with EU guideline 2010/63/EU). […]
# 10. Urinary recovery of injected dose in urine studies
# Recovery of the injected dose in urine studies were conducted in conscious, healthy Sprague Dawley rats (Body weight: 250-300 g). The corresponding test agents with corresponding dosage (ABZWCY: 2.5 mg/kg, ABZWCY mixed with HPβCD: 2.5 mg/kg mixed with 22.5 mg/kg (HPβCD), ABZWCY-HPβCD and AAZWCY-HPβCD: 50 mg/kg) were administered by tail vein injection. Urine was collected using metabolic cages in intervals of 1, 2, 3, 6, 9, 24 h after intravenous injection of agents into rats. The samples were stored at -20°C until they were analyzed. The urine samples were centrifuged for 8 min at 13000 ×g and then filtered by 0.22 μm syringe filter. A series of working solution of each agent with concentrations between 0.02 mg/mL and 2 mg/mL were prepared. Appropriate volumes of the working solutions were added to blank urine and fluorescent intensity of those mixtures were measured in order to obtain an external calibration curve. Quantification of each of the agents in urine at each time point was performed via HPLC analysis and fluorescence intensity detection. The concentration in urine at each time point was calculated based on the external calibration standards curve between fluorescence intensity and the concentration of each of the agents.
# Considering biological components within urine may interfere with the fluorescent intensity of agents, the fluorescent intensity of agent were tested to study whether there is difference in urine and PBS, the emission intensity and calibration curve are compared (Figure S11). The results […]
# This slightly difference can explained the urinary recoveries have some trial a little over 100% (Table S6 and S7), which can be found in other literatures studies. […]
# [6] = test system: plasma protein; details: cited from earlier work
smiles,measurement,setting,value
CC1(C)C(/C=C/C2=C(Nc3ccc(CCN=[N+]=[N-])cc3)C(=C/C=C3/N(CCC[N+](C)(C)C)c4ccc(S(=O)(=O)O)cc4C3(C)C)/CCC2)=[N+](CCC[N+](C)(C)C)c2ccc(S(=O)(=O)O)cc21 [AAZWCY],"fraction unbound at 24 h, 0.2 mg/mL",[1],0.843
CC1(C)C(/C=C/C2=C(Nc3ccc(CCC(=O)O)cc3)C(=C/C=C3/N(CCC[N+](C)(C)C)c4ccc(S(=O)(=O)O)cc4C3(C)C)/CCC2)=[N+](CCC[N+](C)(C)C)c2ccc(S(=O)(=O)O)cc21 [ABZWCY],half-life,[2],48.7 ± 5.4 min
same,half-life,"[3]; Sprague Dawley, rat, skin (transcutaneous fluorescence signal), iv, 2.5 mg/kg, healthy rats 8-10 weeks, i.v. bolus, transcutaneous measurement, read-out: T 1/2 without probenecid (clearance half-life)",52.6 ± 8.8 min
same,Tubular reabsorption or secretion in the kidneys (from probenecid effect),"[3]; healthy rats, half-life with versus without probenecid",tubular reabsorption or secretion is a minor factor
same,"Transcutaneous elimination (clearance) curve, in words",[3]; healthy rats,did not return to background levels at 2 h post-injection
same,PPB,[4],19%
same,"fraction unbound at 24 h, 0.2 mg/mL",[1],~0.8
same,dose excreted,"[5]; Sprague Dawley, rat, urine, iv, 2.5 mg/kg, healthy rats, i.v., mean ± SD, n = 3, read-out: Urinary recovery in 24 h",99.4 ± 4.8%
same,dose excreted at 1 h,"[5]; Sprague Dawley, rat, urine, iv, 2.5 mg/kg, individual rats, cumulative, time 1 h after i.v. injection",46.7%
same,dose excreted at 2 h,"[5]; Sprague Dawley, rat, urine, iv, 2.5 mg/kg, individual rats, cumulative, time 2 h after i.v. injection",65%
same,dose excreted at 6 h,"[5]; Sprague Dawley, rat, urine, iv, 2.5 mg/kg, individual rats, cumulative, time 6 h after i.v. injection",87.2%
same,dose excreted at 9 h,"[5]; Sprague Dawley, rat, urine, iv, 2.5 mg/kg, individual rats, cumulative, time 9 h after i.v. injection",96.9%
same,dose excreted at 24 h,"[5]; Sprague Dawley, rat, urine, iv, 2.5 mg/kg, individual rats, cumulative, time 24 h after i.v. injection",98.3%
same,Urinary recovery at 1 h,"[5]; individual rats, cumulative, time 1 h after i.v. injection",53.33% and 49.29%
same,Urinary recovery at 2 h,"[5]; individual rats, cumulative, time 2 h after i.v. injection",73.06%
same,Urinary recovery at 6 h,"[5]; individual rats, cumulative, time 6 h after i.v. injection",81.95% and 89.05%
same,Urinary recovery at 9 h,"[5]; individual rats, cumulative, time 9 h after i.v. injection",86.39%
same,Urinary recovery at 24 h,"[5]; individual rats, cumulative, time 24 h after i.v. injection",93.3% and 106.6%
"CC1(C)C(/C=C/C=C/C=C/C=C2\N(CCCCS(=O)(=O)O)c3ccc4ccccc4c3C2(C)C)=[N+](CCCCS(=O)(=O)[O-])c2ccc3ccccc3c21 [ICG, indocyanine green]",PPB,[6],99%
"CC1(C)C(/C=C/C2=C(Oc3ccc(S(=O)(=O)O)cc3)C(=C/C=C3/N(CCCCS(=O)(=O)O)c4ccc(S(=O)(=O)[O-])cc4C3(C)C)/CCC2)=[N+](CCCCCC(=O)O)c2ccc(S(=O)(=O)O)cc21 [IRDye800CW, reference compound]","Transcutaneous elimination (clearance) curve, in words",[3]; healthy rats,no decay even at 90 min post-injection
same,PPB,[6]; previous study of the authors,41%
CNC(=O)c1c(I)c(NC(C)=O)c(I)c(C(=O)O)c1I [iothalamate],PPB,[6]; 'gold standard' renal function agent,9.5%

# Reference: PMC5431684, “Zwitterionic near infrared fluorescent agents for noninvasive real-time transcutaneous assessment of kidney function” (Chemical Science, 2017)
